The record followed here is patent US20250296909A1, “NOVEL BENZENE DERIVATIVE AND IMMUNOSUPPRESSION-RELATED USE THEREOF” (PROVIBIO CO., LTD., priority 2021, published 2025).

In assay [1] the test system is psoriasis mouse animal model. As to the kind of experiment: Psoriasis mouse animal model (imiquimod-induced). The class given is in vivo, BALB/c mice. Conditions: 40 mg/kg intraperitoneally twice a day. From the text:
To confirm the therapeutic effect of compounds according to the present invention on psoriasis, a psoriasis animal model was established to evaluate the alleviation of skin lesions and changes in immune cell profiles by administering Compound 69 or Compound 83 via injection.
To establish a psoriasis mouse animal model, BALB/c mice (7 weeks old, 20 g, female) were purchased from Hana Biotech Co. and allowed to acclimate to the housing environment for one week. Afterward, the fur on the dorsal area of the mice was initially shaved using a shaver, followed by complete removal with depilatory cream (Nicrin Cream, comprising thioglycolic acid 80%, manufactured by ILDONG Pharmaceutical CO., LTD). The mice were then housed for 24 hours to confirm any wounds on their backs.
Subsequently, in order to verify the preventive and therapeutic effects of compounds according to the present invention on psoriasis, five experimental groups were established as shown in FIG. 7 and Table 5. From the second to the fifth group, Aldara® cream was applied once daily for two weeks (14 days, total of 14 applications) at a dose of 80 mg (imiquimod, 4 mg) per mouse to induce psoriasis. Furthermore, to compare the preventive and therapeutic effects of compounds according to the present invention (Compound 69 and Compound 83) on psoriasis, 40 mg/kg of the compound per mouse was dissolved in DMSO corresponding to 10% of the dosing volume, and then diluted in a mixture of Cremophor EL-PEG 400-distilled water to achieve a final ratio of DMSO: Cremophor EL:PEG 400:distilled water to 1:1:4:4 (v/v/v/v). Subsequently, the respective injections were intraperitoneally administered at a dose of 100 μL per mouse, twice a day with a 12-hour interval. For the Vehicle control group, injections excluding the drug but comprising the vehicle solution (DMSO: Cremophor EL:PEG 400:distilled water=1:1:4:4 (v/v/v/v)) were administered at a dose of 100 μL per mouse, twice a day with a 12-hour interval.
To assess the impact of each compound on immune cells in vivo, the spleens of mice treated with each compound were harvested, and cells were extracted, and cells were suspended in MACS buffer (2 mM EDTA, 0.5% FBS, 137 mM NaCl, 2.7 mM KCl, 10 mM Na2HPO4, 1.8 mM KH2PO4, Miltenyi Biotech.). For flow cytometry analysis, each mouse's splenocytes were aliquoted at 5×10^5 cells per FACS tube (5 mL round tube, Falcon). To prevent non-specific antibody binding, each tube was treated with 1 μg/mL of anti-mouse CD16/CD32 (InVivoMAb) for 30 minutes, followed by centrifugation at 13,000 rpm for 5 minutes, and resuspended in 100 μL of MACS buffer. Subsequent experiments were conducted depending on the type of immune cells to be examined.
For B cells, each FACS tube was stained with 1 μg/mL of FITC-conjugated anti-B220 antibody (eBioscience™) at 4° C. for 30 minutes, followed by washing with 2 mL of MACS buffer. Subsequently, each tube was centrifuged at 15,000 rpm for 5 minutes, the supernatant was removed, and the precipitated cells were fixed using 200 μL of 4% paraformaldehyde solution.
For T cells, each FACS tube was stained with 1 μg/mL of PerCP-Cy5.5-conjugated anti-CD3 antibody (Biolegend), FITC-conjugated anti-CD8 antibody (eBioscience™) and Cy7-conjugated anti-CD4 antibody (eBioscience™) at 4° C. for 30 minutes, followed by washing with 2 mL of MACS buffer. Subsequently, each tube was centrifuged at 15,000 rpm for 5 minutes, the supernatant was removed, and the precipitated cells were fixed using 200 μL of 4% paraformaldehyde solution.
For macrophages, each FACS tube was stained with 1 μg/mL of FITC-conjugated anti-CD11b antibody (eBioscience™) at 4° C. for 30 minutes, followed by washing with 2 mL of MACS buffer. Subsequently, each tube was centrifuged at 15,000 rpm for 5 minutes, the supernatant was removed, and the precipitated cells were fixed using 200 μL of 4% paraformaldehyde solution.

Assay [2] deals with spleen T cells. Nature of the assay: T cell proliferation inhibition (CFSE, FACS), CD3/CD28-activated spleen T cells. It is filed as cell-based, C57BL/6 mice. In outline:
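Proliferation inhibition is expressed as a percentage versus CD3/CD28-stimulated DMSO controls, from CFSE dye dilution measured by FACS after 3 days at 37 °C. Compounds at 10, 30 and 50 μM (triplicate) on anti-CD3/CD28-activated (0.5 μg/mL each) C57BL/6 mouse spleen T cells, 2×10^5 per well.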

[3] abbreviates: flow cytometry, versus psoriasis groups, FIG. 10.

On to `CCCCCCCCCCCCNC(=O)c1cccnc1N` [Compound 69], for which the “skin lesions (erythema, thickness, exfoliation of back skin)” value in assay [1] (14 days, FIG. 8) was “either minimally present or hardly observed”. Moreover, the “hyperkeratosis, parakeratosis, irregular acanthosis, infiltration of inflammatory cells (H&E staining)” value in assay [1] (14 days, FIG. 9) is “either minimally present or hardly observed”. Besides, in assay [1] (setting [3]), the “proportion of B cells in the spleen” value is reported as “increase”, the “proportion of CD11b granulocytes in the spleen” value was “decreased” and the “proportion of T cells in the spleen” value is reported as “increase”. For the same molecule, the inhibition at 10 µM in assay [2] (Mus musculus, T-cell, 72 h, Table 2, 10 μM, 3 days, relative to CD3/CD28+DMSO, read-out: Proliferation inhibition rate (%)) was found to be 99%. For the same molecule, in assay [2] (Mus musculus, T-cell, 72 h, Table 2, 30 μM, 3 days, relative to CD3/CD28+DMSO, read-out: Proliferation inhibition rate (%)), the inhibition at 30 µM amounted to 100%. For the same molecule, the inhibition at 50 µM in assay [2] (Mus musculus, T-cell, 72 h, Table 2, 50 μM, 3 days, relative to CD3/CD28+DMSO, read-out: Proliferation inhibition rate (%)) came out at 100%. The “cell proliferation read by FACS (FIG. 2)” value in assay [2] (concentrations ranging from 10 to 30 μM) is “inhibition of cell proliferation”.
